A word on the Kd: it is the free concentration of one partner at which half of the binding sites on the other are occupied at equilibrium, for simple one-to-one binding. Read a low Kd as higher affinity.

For experiment [1], the target named is Dock1 DHR-1 domain (422-619) (Homo sapiens, UniProt Q14185, D436Y). Nature of the experiment: ITC. The format is binding.
For experiment [2], the target named is Dock1 DHR-1 domain (422-619) (Homo sapiens, UniProt Q14185). Nature of the experiment: ITC. The format is binding.
Sequence of Dock1 DHR-1 domain (422-619) (Homo sapiens, UniProt Q14185) (Q14185 422-619): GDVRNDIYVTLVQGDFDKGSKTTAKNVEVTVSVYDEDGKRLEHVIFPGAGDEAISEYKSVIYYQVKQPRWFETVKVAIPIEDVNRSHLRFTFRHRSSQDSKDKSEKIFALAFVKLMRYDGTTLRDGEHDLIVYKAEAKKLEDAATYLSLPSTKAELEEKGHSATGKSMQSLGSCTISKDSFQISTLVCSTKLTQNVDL

Sequence of Dock1 DHR-1 domain (422-619) (Homo sapiens, UniProt Q14185, D436Y) (Q14185 422-619 D436Y): as the sequence (Q14185 422-619) above, with D15Y counted along it

Compound `CCCCCCCC(=O)OC[C@H](COP(=O)(O)O[C@H]1[C@H](O)[C@@H](OP(=O)(O)O)[C@H](OP(=O)(O)O)[C@@H](OP(=O)(O)O)[C@H]1O)OC(=O)CCCCCCC` [di-C8-PtdIns(3,4,5)P3] yielded a Kd in experiment [1] of 3.4 µM.
As for `O=P(O)(O)O[C@H]1[C@H](O)[C@@H](OP(=O)(O)O)[C@H](OP(=O)(O)O)[C@@H](OP(=O)(O)O)[C@H]1O` [Ins(1,3,4,5)P4], in experiment [2], the Kd turned out to be 7.7 ± 3 µM.

Values taken from publication PMC2857062 (The Journal of biological chemistry, 2010).
